{
  "source": "patent US20230339878A1",
  "about": "“SLC26A3 INHIBITORS AND USE THEREOF” (THE REGENTS OF THE UNIVERSITY OF CALIFORNIA, priority 2018, published 2023)",
  "key": {"(human) SLC26A3": {"target": "T1, (human) SLC26A3 (Homo sapiens, UniProt P40879)", "T1 construct": "host or cells: HEK293 cells transduced with lentivirus, then transfected with YFP", "T1 sequence (P40879 1-764)": "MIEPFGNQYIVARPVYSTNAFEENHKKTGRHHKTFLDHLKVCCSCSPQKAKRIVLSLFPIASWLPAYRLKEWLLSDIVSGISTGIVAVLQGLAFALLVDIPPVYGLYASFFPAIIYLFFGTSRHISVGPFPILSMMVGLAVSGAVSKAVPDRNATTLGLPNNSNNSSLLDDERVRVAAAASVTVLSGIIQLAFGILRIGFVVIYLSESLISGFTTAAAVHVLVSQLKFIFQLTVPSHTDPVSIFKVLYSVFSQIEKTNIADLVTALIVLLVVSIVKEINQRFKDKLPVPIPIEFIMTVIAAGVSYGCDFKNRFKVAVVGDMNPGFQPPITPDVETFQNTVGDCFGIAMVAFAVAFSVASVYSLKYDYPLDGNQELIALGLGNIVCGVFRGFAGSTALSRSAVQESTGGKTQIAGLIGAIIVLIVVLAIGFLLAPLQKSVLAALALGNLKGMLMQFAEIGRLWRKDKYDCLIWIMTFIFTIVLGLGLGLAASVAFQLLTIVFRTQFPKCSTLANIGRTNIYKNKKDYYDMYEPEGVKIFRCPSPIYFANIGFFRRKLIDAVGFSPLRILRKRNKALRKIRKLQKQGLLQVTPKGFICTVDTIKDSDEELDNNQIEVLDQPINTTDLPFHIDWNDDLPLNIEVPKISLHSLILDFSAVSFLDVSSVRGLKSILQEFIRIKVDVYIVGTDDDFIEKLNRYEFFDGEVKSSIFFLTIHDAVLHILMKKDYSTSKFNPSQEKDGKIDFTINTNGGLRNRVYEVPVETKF", "assay": "SLC26A3-mediated Cl-/I- exchange in HEK cells expressing SLC26A3 and YFP", "assay_type": "cell-based", "experimental": "Inhibition of (human) SLC26A3 by Compound A1 was also tested, using a HEK cell model expressing SLC26A3 and YFP.\nTo generate a cell line enriched for expression of SLC26A3, HEK293 cells were transduced with lentiviral particles generated with the pLVX-IRES-mCherry-SLC26A3 transfer vector and then transfected to express YFP.\n(§1) HEK293 cells transfected with pIRES-YFP-slc26a9 were plated in 96-well black-walled, clear-bottom tissue culture plates (Corning Life Sciences, Tewksbury, MA) after coating with FNC Coating Mix (AthenaES, Baltimore, MD). […] Assays of slc26a9-mediated anion exchange were done by initially recording YFP fluorescence prior to addition of 100 µL of NaI-substituted PBS to test wells, with the initial rate of Cl^-/I^- exchange deduced from fluorescence intensity by single exponential regression. […] To assay SLC26A3 function, HEK293 cells transduced with lentiviral particles generated from the pLVX-IRES-mCherry-SLC26A3 transfer vector were transfected to express YFP for Cl^-/I^- exchange assays as described above; red fluorescence images were acquired to confirm SLC26A3 expression in cells. […]"}, "slc26a9": {"target": "T2, slc26a9 (Mus musculus, UniProt Q8BU91)", "T2 construct": "host or cells: HEK293 cells", "T2 sequence (Q8BU91 1-790)": "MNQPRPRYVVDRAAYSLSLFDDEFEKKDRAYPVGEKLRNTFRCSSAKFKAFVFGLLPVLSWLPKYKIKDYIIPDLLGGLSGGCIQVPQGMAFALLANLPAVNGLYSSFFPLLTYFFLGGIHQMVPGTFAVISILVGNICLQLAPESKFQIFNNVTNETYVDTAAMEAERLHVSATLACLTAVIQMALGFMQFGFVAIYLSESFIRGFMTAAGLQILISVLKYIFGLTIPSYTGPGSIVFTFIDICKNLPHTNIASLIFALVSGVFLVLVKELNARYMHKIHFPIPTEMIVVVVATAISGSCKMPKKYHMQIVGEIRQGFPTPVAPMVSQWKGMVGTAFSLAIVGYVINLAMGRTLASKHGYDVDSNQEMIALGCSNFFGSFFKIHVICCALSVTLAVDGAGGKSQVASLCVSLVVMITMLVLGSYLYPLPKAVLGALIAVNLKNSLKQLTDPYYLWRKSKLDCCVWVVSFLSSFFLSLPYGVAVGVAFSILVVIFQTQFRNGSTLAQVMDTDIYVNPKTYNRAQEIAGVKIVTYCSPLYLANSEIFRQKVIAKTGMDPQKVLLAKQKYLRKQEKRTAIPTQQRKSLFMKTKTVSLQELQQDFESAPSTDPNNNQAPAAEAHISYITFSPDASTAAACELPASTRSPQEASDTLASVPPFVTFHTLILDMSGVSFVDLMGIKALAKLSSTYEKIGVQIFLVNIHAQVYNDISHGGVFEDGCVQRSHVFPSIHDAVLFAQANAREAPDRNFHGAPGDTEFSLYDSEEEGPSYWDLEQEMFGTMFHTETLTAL", "assay": "Selectivity: slc26a9 Cl-/I- exchange in HEK293 cells", "assay_type": "cell-based, murine", "settings": "10 µM", "text": "To investigate Compound A1 selectivity, transport assays were done on a panel of SLC26-family homologs, and other relevant epithelial ion transporters and channels. […] In separate studies, to investigate possible action of Compound A1 on multiple ion transporters and channels in a human epithelium, human bronchial epithelial (HBE) cells were studied by short-circuit current, with successive additions of amiloride (to block the epithelial sodium channel ENaC), forskolin, CFTRinh-172 (to block CFTR), and ATP (to activate the Ca^2+-activated chloride channel, CaCC) (FIG. 5C).\nas §1"}},
  "note": "“Also recorded” adds a separate entry of the source.",
  "data": [
    {"smiles": "Cc1c(CC(=O)O)c(=O)oc2c(C)c(OCc3cccc(Br)c3)ccc12", "note": "[Compound A1]", "values": [
      {"measurement": "IC50", "setting": "(human) SLC26A3; HEK cells", "result": "~250", "unit": "nM"},
      {"measurement": "extent of inhibition of SLC26A3-mediated Cl-/I- exchange", "setting": "(human) SLC26A3; higher concentrations", "result": "complete inhibition"},
      {"measurement": "effect on Cl-/I- exchange activity of slc26a9", "setting": "slc26a9", "result": "did not alter; also recorded: differences not significant"}
    ]}
  ]
}
